From patent US10442788B2, “Hepatitis B antiviral agents” (ENANTA PHARMACEUTICALS, INC., priority 2015, dated 2019) come the findings set out here.

This assay has as its system HBV. Description: HepAD38 antiviral assay: reduction of viral product accumulation (virion DNA by qPCR, HBsAg or HBeAg by ELISA). The settings on record: Hepatitis B virus, 120 h; HepAD38 cells, five days after compound addition; 50% reduction of viral product accumulation relative to no drug controls; read-out: HepAD38 EC50. The format is cell-based. The procedure:
Methods: HepAD38 cells are maintained as previously reported (Ladner et al, Antimicrob. Agents Chemother. 1997, […], 1715). Briefly, cells are passaged upon attaining confluency in DMEM/F12 media in the presence of 10% FBS, Penn/Strep, 250 μg/mL G418, and 1 ug/ml tetracycline. Novel compounds are screened by first washing cells three times with PBS to remove tetracycline, and plating in 96 well plates at 35,000 cells/well. Compounds dissolved in DMSO are then diluted 1:200 into wells containing cells. Five days after compound addition, material is harvested for analysis. For an extended 8 day analysis, cells are plated and treated as described above, but media and compound are refreshed on d2 and d5 post initial treatment.
On harvest day, virion DNA is obtained by lysing with Sidestep Lysis and Stabilization Buffer and then quantified via quantitative real time PCR. Commercially available ELISA kits are used to quantitate the viral proteins HBsAg (Alpco) or HbeAg (US Biological) by following the manufacturer's recommended protocol after diluting samples to match the linear range of their respective assays. Irrespective of readout, compound concentrations that reduce viral product accumulation in the cell lysates or supernatants by 50% relative to no drug controls (EC50) are reported; EC50 ranges are as follows: A<1 μM; B 1-10 μM; C>10 μM.

As to `COC(=O)NC(C)CCNS(=O)(=O)c1cc(-c2nc(-c3ccc(Br)c(F)c3)c[nH]2)ccc1Cl` (stereo not drawn) [Example 188], the EC50 is less than 1000 nM. As for `COC(=O)NCCCN(C)S(=O)(=O)c1cc(-c2nc(-c3ccc(Br)c(F)c3)c[nH]2)ccc1Cl` [Example 190], the concentration for a half-maximal effect (EC50) is less than 1000 nM. For `N#CCCCCNS(=O)(=O)c1cc(-c2nc(-c3ccc(Br)c(F)c3)c[nH]2)ccc1Cl` [Example 191] the value was less than 1000 nM. Consider `COC(=O)NC1(C(=O)NCCCNS(=O)(=O)c2cc(-c3nc(-c4ccc(Br)c(F)c4)c[nH]3)ccc2Cl)CC1` [Example 192], for which the EC50 is less than 1000 nM. In the case of `O=C(CCCNS(=O)(=O)c1cc(-c2nc(-c3ccc(Br)c(F)c3)c[nH]2)ccc1Cl)Nc1ccccc1` [Example 194], the EC50 was less than 1000 nM.

For `O=S(=O)(c1cc(-c2nc(-c3ccc(Br)c(F)c3)c[nH]2)ccc1Cl)N1CCN(c2cccnc2)CC1` [Example 195], the concentration for a half-maximal effect (EC50) is less than 1000 nM.

For the compound `O=S(=O)(c1cc(-c2nc(-c3ccc(Br)c(F)c3)c[nH]2)ccc1Cl)N1CCN(c2ccncc2)CC1` [Example 196], the EC50 is less than 1000 nM. For `O=S(=O)(c1cc(-c2nc(-c3ccc(F)c(Br)c3)c(F)[nH]2)ccc1Cl)N1CCC(O)CC1` [Example 197] the value was less than 1000 nM; for `CC(C)(C)OC(=O)N[C@H]1C[C@H](NS(=O)(=O)c2cc(-c3nc(-c4ccc(Br)c(F)c4)c[nH]3)ccc2Cl)C1` [Example 198], less than 1000 nM. With `CC(C)(C)OC(=O)NCC1CCN(S(=O)(=O)c2cc(-c3nc(-c4ccc(Br)c(F)c4)c[nH]3)ccc2Cl)C1` (stereo not drawn) [Example 199] the figure was less than 1000 nM; with `CN(C)CC(=O)NCCCNS(=O)(=O)c1cc(-c2nc(-c3ccc(Br)c(F)c3)c[nH]2)ccc1Cl` [Example 200], 1000 to 10000 nM; with `COC(=O)NCC(=O)NCCCNS(=O)(=O)c1cc(-c2nc(-c3ccc(Br)c(F)c3)c[nH]2)ccc1Cl` [Example 201], 1000 to 10000 nM. On to `COc1ccc(-c2c[nH]c(-c3ccc(Cl)c(S(=O)(=O)N4CCC(O)CC4)c3)n2)cc1Cl` [Example 202], for which the EC50 is greater than 10000 nM.

With `[2H]C([2H])([2H])Oc1cccc(-c2c[nH]c(-c3ccc(Cl)c(S(=O)(=O)N4CCC(O)CC4)c3)n2)c1` [Example 203], the EC50 is greater than 10000 nM. For `[2H]C([2H])([2H])Oc1cc(-c2c[nH]c(-c3ccc(Cl)c(S(=O)(=O)N4CCC(O)CC4)c3)n2)ccc1F` [Example 204] the value was less than 1000 nM; for `O=S(=O)(c1cc(-c2nc(-c3ccc(Br)c(F)c3)c[nH]2)ccc1Cl)N1CCN(c2cc(F)ccn2)CC1` [Example 205], less than 1000 nM; for `O=C(Nc1ccccc1)N1CCN(S(=O)(=O)c2cc(-c3nc(-c4ccc(Br)c(F)c4)c[nH]3)ccc2Cl)CC1` [Example 206], greater than 10000 nM. For `O=P(O)(O)OC1CCN(S(=O)(=O)c2cc(-c3nc(-c4ccc(F)c(Br)c4)c[nH]3)ccc2Cl)CC1` [Example 207] the value was 1000 to 10000 nM.

As for `C[C@@H]1CN(S(=O)(=O)c2cc(-c3ncc(-c4ccc(Br)c(F)c4)[nH]3)ccc2Cl)CC[C@H]1O` [Example 208], the concentration for a half-maximal effect (EC50) was less than 1000 nM. For the compound `CC1CC(O)CCN1S(=O)(=O)c1cc(-c2ncc(-c3ccc(Br)c(F)c3)[nH]2)ccc1Cl` (stereo not drawn) [Example 209], the EC50 was less than 1000 nM. With `CC(C)(O)C1CN(S(=O)(=O)c2cc(-c3ncc(-c4ccc(Br)c(F)c4)[nH]3)ccc2Cl)C1` [Example 210] the figure was less than 1000 nM; with `O=S(=O)(N[C@H]1C[C@@H](O)C1)c1cc(-c2ncc(-c3ccc(Br)c(F)c3)[nH]2)ccc1Cl` [Example 211], less than 1000 nM.

Regarding `O=S(=O)(N[C@H]1CC[C@H](O)CC1)c1cc(-c2ncc(-c3ccc(Br)c(F)c3)[nH]2)ccc1Cl` [Example 212], the EC50 was less than 1000 nM. As to `O=S(=O)(NC[C@H](O)CO)c1cc(-c2ncc(-c3ccc(Br)c(F)c3)[nH]2)ccc1Cl` [Example 213], the EC50 was less than 1000 nM.

With `O=S(=O)(NC[C@@H](O)CO)c1cc(-c2ncc(-c3ccc(Br)c(F)c3)[nH]2)ccc1Cl` [Example 214], the concentration for a half-maximal effect (EC50) is less than 1000 nM. For `O=S(=O)(NCCCCc1nnn[nH]1)c1cc(-c2nc(-c3ccc(Br)c(F)c3)c[nH]2)ccc1Cl` [Example 215] the value was greater than 10000 nM; for `COc1cc(-c2c[nH]c(-c3ccc(Cl)c(S(=O)(=O)N4CCC(O)CC4)c3)n2)ccc1Cl` [Example 216], less than 1000 nM. For `[2H]C([2H])([2H])Oc1ccc(-c2c[nH]c(-c3ccc(Cl)c(S(=O)(=O)N4CCC(O)CC4)c3)n2)cc1` [Example 217] the value was 1000 to 10000 nM; for `O=S(=O)(c1cc(-c2nc(-c3ccc(Br)c(F)c3)c[nH]2)ccc1Cl)N1CCN(c2ccc(F)cn2)CC1` [Example 219], less than 1000 nM; for `O=S(=O)(c1cc(-c2nc(-c3ccc(Br)c(F)c3)c[nH]2)ccc1Cl)N1CCC(c2ccccn2)CC1` [Example 220], less than 1000 nM. In the case of `O=S(=O)(c1cc(-c2nc(-c3ccc(Br)c(F)c3)c[nH]2)ccc1Cl)N1CC=C(c2ccccn2)CC1` [Example 221], the EC50 was 1000 to 10000 nM. Regarding `O=S(=O)(c1cc(-c2nc(-c3ccc(Br)c(F)c3)c[nH]2)ccc1Cl)N1CCN(S(=O)(=O)C2CC2)CC1` [Example 222], the EC50 is greater than 10000 nM. For `O=S(=O)(NC1CC(O)C1)c1cc(-c2ncc(-c3ccc(Br)c(F)c3)[nH]2)ccc1Cl` (stereo not drawn) [Example 223] the value was 1000 to 10000 nM; for `CC(C)(O)CNS(=O)(=O)c1cc(-c2ncc(-c3ccc(Br)c(F)c3)[nH]2)ccc1Cl` [Example 224], less than 1000 nM. In the case of `CC(C)(O)CCNS(=O)(=O)c1cc(-c2ncc(-c3ccc(Br)c(F)c3)[nH]2)ccc1Cl` [Example 225], the EC50 is less than 1000 nM. For `O=S(=O)(c1cc(-c2ncc(-c3ccc(Br)c(F)c3)[nH]2)ccc1Cl)N1CCC[C@H](O)C1` [Example 226] the value was less than 1000 nM; for `O=S(=O)(N[C@H]1CC[C@@H](O)CC1)c1cc(-c2ncc(-c3ccc(Br)c(F)c3)[nH]2)ccc1Cl` [Example 227], less than 1000 nM.

Regarding `O=S(=O)(c1cc(-c2ncc(-c3ccc(Br)c(F)c3)[nH]2)ccc1Cl)N1C[C@@H](O)[C@@H](O)C1` [Example 228], the 50% effective concentration (EC50) is less than 1000 nM. For `O=S(=O)(c1cc(-c2ncc(-c3ccc(Br)c(F)c3)[nH]2)ccc1Cl)N1C[C@@H](O)[C@H](O)C1` [Example 229] the value was less than 1000 nM; for `O=S(=O)(c1cc(-c2ncc(-c3ccc(Br)c(F)c3)[nH]2)ccc1Cl)N1CC[C@H](O)[C@H](O)C1` [Example 230], less than 1000 nM; for `O=S(=O)(c1cc(-c2ncc(-c3ccc(Br)c(F)c3)[nH]2)ccc1Cl)N1CC[C@H](O)[C@@H](O)C1` [Example 231], less than 1000 nM.

Take `O=S(=O)(c1cc(-c2nc(-c3ccc(Br)c(F)c3)c[nH]2)ccc1Cl)N1CCCC[C@H](O)C1` [Example 232]: the EC50 is less than 1000 nM. As for `O=S(=O)(c1cc(-c2nc(-c3ccc(Br)c(F)c3)c[nH]2)ccc1Cl)N1CCCC[C@@H](O)C1` [Example 233], the EC50 is less than 1000 nM. For `O=S(=O)(c1cc(-c2nc(-c3ccc(Br)c(F)c3)c[nH]2)ccc1Cl)N1CCC[C@@H](O)CC1` [Example 234], the EC50 was less than 1000 nM. `O=S(=O)(c1cc(-c2nc(-c3ccc(Br)c(F)c3)c[nH]2)ccc1Cl)N1CCC[C@H](O)CC1` [Example 235]: the EC50 was less than 1000 nM. Consider `COC(=O)NCCCN(CCCO)S(=O)(=O)c1cc(-c2nc(-c3ccc(Br)c(F)c3)c[nH]2)ccc1Cl` [Example 236], for which the EC50 was less than 1000 nM. As to `O=S(=O)(NCCCNc1ncco1)c1cc(-c2nc(-c3ccc(Br)c(F)c3)c[nH]2)ccc1Cl` [Example 237], the EC50 was less than 1000 nM.

For `O=S(=O)(c1cc(-c2nc(-c3ccc(CC(F)(F)F)cc3)c[nH]2)ccc1Cl)N1CCC(O)CC1` [Example 238], the EC50 is greater than 10000 nM.

Take `O=S(=O)(c1cc(-c2nc(-c3cccc(CC(F)(F)F)c3)c[nH]2)ccc1Cl)N1CCC(O)CC1` [Example 239]: the EC50 is greater than 10000 nM.

As to `COC1CCCCC1N1CCN(S(=O)(=O)c2cc(-c3nc(-c4ccc(Br)c(F)c4)c[nH]3)ccc2Cl)CC1` (stereo not drawn) [Example 240], the EC50 was less than 1000 nM. With `COC(=O)NCCCCCCNS(=O)(=O)c1cc(-c2nc(-c3ccc(Br)c(F)c3)c[nH]2)ccc1Cl` [Example 241] the figure was less than 1000 nM; with `CC(C)(C)OC(=O)NCCCCCCNS(=O)(=O)c1cc(-c2nc(-c3ccc(Br)c(F)c3)c[nH]2)ccc1Cl` [Example 242], less than 1000 nM; with `O=S(=O)(c1cc(-c2ncc(-c3ccc(Br)c(F)c3)[nH]2)ccc1Cl)N1C[C@@H]2[C@@H](O)[C@@H]2C1` [Example 243], less than 1000 nM. For the compound `C[C@@H]1CCN(S(=O)(=O)c2cc(-c3nc(-c4ccc(Br)c(F)c4)c[nH]3)ccc2Cl)C[C@@H]1O` [Example 244], the EC50 is less than 1000 nM.

As to `C[C@H]1CCN(S(=O)(=O)c2cc(-c3nc(-c4ccc(Br)c(F)c4)c[nH]3)ccc2Cl)C[C@@H]1O` [Example 245], the EC50 was less than 1000 nM. For `O=S(=O)(c1cc(-c2ncc(-c3ccc(Br)c(F)c3)[nH]2)ccc1Cl)N1CC[C@@H](O)C1` [Example 247] the value was greater than 10000 nM; for `O=S(=O)(c1cc(-c2nc(-c3ccc(F)c(C(F)F)c3)c[nH]2)ccc1Cl)N1CCC(O)CC1` [Example 248], greater than 10000 nM.
